{
  "source": "ChEMBL document CHEMBL3352684",
  "about": "“Discovery of MK-3697: a selective orexin 2 receptor antagonist (2-SORA) for the treatment of insomnia” (Bioorg Med Chem Lett, 2014)",
  "key": {"Rattus norvegicus [1]": {"species_on_record": "Rattus norvegicus", "experiment": "Ex vivo receptor occupancy at human OX2R expressed in transgenic rat at CSF concentration of 40 nM", "format": "functional"}, "[2]": {"experiment": "Clearance in dog with cassette dosing", "format": "ADME, organism-based, Canis lupus familiaris", "settings": "in vivo"}, "[3]": {"experiment": "Lipophilicity, log D of the compound", "format": "physicochemical", "settings": "octanol/water"}, "[4]": {"experiment": "Apparent permeability of the compound", "format": "physicochemical", "settings": "not told"}, "[5]": {"target": "T1, Nuclear receptor subfamily 1 group I member 2 (Homo sapiens, UniProt O75469)", "T1 sequence (O75469 whole entry)": "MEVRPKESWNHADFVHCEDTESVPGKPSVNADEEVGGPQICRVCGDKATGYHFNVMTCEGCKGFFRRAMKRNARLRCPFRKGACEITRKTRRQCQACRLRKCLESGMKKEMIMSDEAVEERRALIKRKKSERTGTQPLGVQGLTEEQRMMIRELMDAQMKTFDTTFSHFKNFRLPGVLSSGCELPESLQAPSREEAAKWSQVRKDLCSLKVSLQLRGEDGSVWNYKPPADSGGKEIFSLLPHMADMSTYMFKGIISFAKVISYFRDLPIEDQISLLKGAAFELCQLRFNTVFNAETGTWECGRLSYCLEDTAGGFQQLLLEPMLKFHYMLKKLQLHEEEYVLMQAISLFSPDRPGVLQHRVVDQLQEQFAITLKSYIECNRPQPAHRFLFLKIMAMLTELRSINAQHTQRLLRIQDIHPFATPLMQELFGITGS", "experiment": "Activation of PXR (unknown origin)"}, "[6]": {"experiment": "Half life in rat at 2 mg/kg, iv", "format": "ADME, organism-based", "set-up": "dose 2 mg/kg, route intravenous", "settings": "in vivo"}, "[7]": {"experiment": "Half life in dog at 1 mg/kg, iv", "format": "ADME, organism-based, Canis lupus familiaris", "set-up": "dose 1 mg/kg, route intravenous", "settings": "in vivo"}, "[8]": {"experiment": "AUC (0 to infinity) in rat at 5 mg/kg, po", "format": "ADME, organism-based", "set-up": "time infinity, dose 5 mg/kg, route oral", "settings": "plasma"}, "[9]": {"experiment": "Tmax in rat at 5 mg/kg, po", "format": "ADME, organism-based", "set-up": "dose 5 mg/kg, route oral", "settings": "in vivo"}, "[10]": {"experiment": "Tmax in rat at dog at 3 mg/kg, po", "format": "ADME, organism-based, Canis lupus familiaris", "set-up": "dose 3 mg/kg, route oral", "settings": "in vivo"}, "[11]": {"experiment": "Oral bioavailability in […] dog at 3 mg/kg", "format": "ADME, organism-based, Canis lupus familiaris", "settings": "in vivo"}, "Mus musculus [12]": {"tested_on": "Mus musculus", "experiment": "Increase in slow wave sleep in mouse at 100 mg/kg, po after 2 hrs", "format": "functional, organism-based", "set-up": "dose 100 mg/kg"}, "Mus musculus [13]": {"tested_on": "Mus musculus", "experiment": "Increase in rapid eye movement sleep in mouse at 100 mg/kg, po after 2 hrs", "format": "functional, organism-based", "set-up": "dose 100 mg/kg"}, "Rattus norvegicus [14]": {"tested_on": "Rattus norvegicus", "experiment": "Increase in rapid eye movement sleep in Sprague-Dawley rat at 15 mg/kg, po after 2 hrs", "format": "functional, organism-based", "set-up": "dose 15 mg/kg"}, "Mus musculus [15]": {"tested_on": "Mus musculus", "experiment": "Increase in slow wave sleep in OX2R-knockout mouse at 100 mg/kg, po after 2 hrs", "format": "functional, organism-based", "set-up": "dose 100 mg/kg"}, "Mus musculus [16]": {"tested_on": "Mus musculus", "experiment": "Increase in rapid eye movement sleep in OX2R-knockout mouse at 100 mg/kg, po after 2 hrs", "format": "functional, organism-based", "set-up": "dose 100 mg/kg"}, "Canis familiaris [17]": {"tested_on": "Canis familiaris", "experiment": "Increase in slow wave sleep in dog at 3 mg/kg, po after 2 hrs", "format": "functional, organism-based", "set-up": "dose 3 mg/kg", "settings": "Canis lupus familiaris"}, "Canis familiaris [18]": {"tested_on": "Canis familiaris", "experiment": "Increase in rapid eye movement sleep in dog at 3 mg/kg, po after 3.5 hrs", "format": "functional, organism-based", "set-up": "dose 3 mg/kg", "settings": "Canis lupus familiaris"}, "[19]": {"experiment": "Cmax in mouse at 100 mg/kg, po", "format": "ADME, organism-based", "set-up": "dose 100 mg/kg, route oral", "settings": "in vivo"}, "[20]": {"target": "T2, Orexin receptor type 2 (Mus musculus) (UniProt P58308)", "T2 sequence (whole entry)": "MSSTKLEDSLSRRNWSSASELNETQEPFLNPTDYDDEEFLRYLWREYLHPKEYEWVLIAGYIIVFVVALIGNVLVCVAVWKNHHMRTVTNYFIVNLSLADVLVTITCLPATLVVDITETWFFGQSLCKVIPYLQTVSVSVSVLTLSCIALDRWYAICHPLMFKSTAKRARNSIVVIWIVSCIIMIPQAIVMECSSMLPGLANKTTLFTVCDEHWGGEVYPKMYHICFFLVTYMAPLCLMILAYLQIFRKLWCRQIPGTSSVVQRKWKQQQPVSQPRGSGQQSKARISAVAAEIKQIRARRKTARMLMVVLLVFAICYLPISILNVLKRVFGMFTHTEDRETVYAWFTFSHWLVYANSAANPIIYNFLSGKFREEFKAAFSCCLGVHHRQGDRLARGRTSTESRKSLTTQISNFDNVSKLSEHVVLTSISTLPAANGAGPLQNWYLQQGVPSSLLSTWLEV", "experiment": "Antagonist activity at mouse OX2R by FLIPR assay"}, "[21]": {"target": "T3, Orexin/Hypocretin receptor type 1 (Mus musculus) (UniProt P58307)", "T3 sequence (whole entry)": "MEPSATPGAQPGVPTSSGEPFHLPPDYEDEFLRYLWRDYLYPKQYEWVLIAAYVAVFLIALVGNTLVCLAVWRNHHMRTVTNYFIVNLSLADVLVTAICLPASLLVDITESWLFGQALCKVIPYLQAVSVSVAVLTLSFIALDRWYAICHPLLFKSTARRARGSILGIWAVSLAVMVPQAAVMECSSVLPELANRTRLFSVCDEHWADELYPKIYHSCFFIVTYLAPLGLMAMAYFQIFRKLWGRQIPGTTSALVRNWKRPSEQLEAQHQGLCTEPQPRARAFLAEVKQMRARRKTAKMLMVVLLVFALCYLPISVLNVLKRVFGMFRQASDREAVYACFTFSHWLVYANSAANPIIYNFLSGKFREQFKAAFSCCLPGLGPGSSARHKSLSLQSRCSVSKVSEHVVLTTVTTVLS", "experiment": "Antagonist activity at mouse OX1R by FLIPR assay"}, "[22]": {"experiment": "Tmax in Sprague-Dawley rat at 15 mg/kg, po", "format": "ADME, organism-based", "set-up": "dose 15 mg/kg, route oral", "settings": "in vivo"}, "[23]": {"experiment": "Drug uptake in Sprague-Dawley rat CSF at 15 mg/kg, po", "format": "ADME, organism-based, Cerebrospinal fluid", "set-up": "dose 15 mg/kg, route oral", "settings": "in vivo, read-out: Drug uptake"}, "[24]": {"target": "T4, Orexin receptor type 2 (Rattus norvegicus) (UniProt P56719)", "T4 sequence (whole entry)": "T2 sequence (whole entry) with S11P, C193R, H213R, I240V, Q269P, H387R, V424A", "experiment": "Antagonist activity at Sprague-Dawley rat OX2R by FLIPR assay"}, "[25]": {"experiment": "Cmax in dog at 3 mg/kg, po", "format": "ADME, organism-based, Canis lupus familiaris", "set-up": "dose 3 mg/kg, route oral", "settings": "in vivo"}},
  "note": "Numbering of substitutions follows the chain as printed. Activity calls are given as the source filed them. The rule behind the calls is not given here.",
  "data": [
    {"smiles": "COc1ccc(CNC(=O)c2cc(-c3cncc(C)c3)ncc2-c2nccs2)nc1OC", "values": [
      {"measurement": "Occ", "setting": "Rattus norvegicus [1]", "value": 90, "unit": "%"},
      {"measurement": "clearance", "setting": "[2]", "value": 0.72, "unit": "L/h/kg"},
      {"measurement": "logD", "setting": "[3]", "value": 1.9},
      {"measurement": "Papp", "setting": "[4]", "value": 330, "unit": "nm/s"},
      {"measurement": "EC50", "setting": "[5]", "value": "> 30", "unit": "µM"},
      {"measurement": "half-life", "setting": "[6]", "value": 24, "unit": "min"},
      {"measurement": "half-life", "setting": "[7]", "value": 72, "unit": "min"},
      {"measurement": "AUC(0-inf)", "setting": "[8]", "value": 3, "unit": "µM·h"},
      {"measurement": "Tmax", "setting": "[9]", "value": 18, "unit": "min"},
      {"measurement": "Tmax", "setting": "[10]", "value": 42, "unit": "min"},
      {"measurement": "bioavailability", "setting": "[11]", "value": 49, "unit": "%"},
      {"measurement": "Activity", "setting": "Mus musculus [12]", "value": "Active"},
      {"measurement": "Activity", "setting": "Mus musculus [13]", "value": "Active"},
      {"measurement": "Activity", "setting": "Rattus norvegicus [14]", "value": "Active"},
      {"measurement": "Activity", "setting": "Mus musculus [15]", "value": "inactive"},
      {"measurement": "Activity", "setting": "Mus musculus [16]", "value": "inactive"},
      {"measurement": "Activity", "setting": "Canis familiaris [17]", "value": "Active"},
      {"measurement": "Activity", "setting": "Canis familiaris [18]", "value": "Active"},
      {"measurement": "Cmax", "setting": "[19]", "value": 55.3, "unit": "µM"},
      {"measurement": "INH", "setting": "[20]", "value": 12, "unit": "nM"},
      {"measurement": "INH", "setting": "[21]", "value": 27.2, "unit": "µM"},
      {"measurement": "Tmax", "setting": "[22]", "value": 48, "unit": "min"},
      {"measurement": "concentration", "setting": "[23]", "value": 0.9, "unit": "µM"},
      {"measurement": "INH", "setting": "[24]", "value": 31, "unit": "nM"},
      {"measurement": "Cmax", "setting": "[25]", "value": 2.7, "unit": "µM"}
    ]}
  ]
}
